Measured values taken from patent publication US20170296500A1, “Uses of Chlorogenic Acid in the Preparation of Medicaments for Treatment of Psoriasis” (SICHUAN JIUZHANG BIOLOGICAL SCIENCE AND TECHNOLOGY CO., LTD, priority 2014, published 2017).
Read-outs that look alike come from different tables or passages of the source.

What was measured:
[1] = test system: psoriasiform pathological change in aural region of guinea pigs; test: Pharmacodynamic test, psoriasis vulgaris model induced by 5% propranolol emulsion on guinea pig ears; Baker pathologic scores; assay type: in vivo; settings: 14 days; for Pathology of lesional tissue after administration (light microscope): guinea pig ear, HE stain; for Baker scores compared with model group: P<0.01
Description: 60 guinea pigs adapted to diet one week before initiation of experimentation, and both ears of guinea pigs were unhaired, and randomly divided into blank group and experimental group, with 12 guinea pigs for blank group and 48 guinea pigs for experimental group. In experimental group, 5% propranolol dinitrate emulsion was evenly applied to bilateral ear back of guinea pigs, while in blank group, blank medium was applied for 14 days, with a thickness of about 1.0 mm for each time and 4 times per day, to induce pathologic change of psoriasis vulgaris-appearing. […] Based on body weight and conditions of establishing model, the remaining 44 guinea pigs were divided into 4 groups using random digits table, i.e. model group, positive group, low-dose group of chlorogenic acid, high-dose group of chlorogenic acid, 11 guinea pigs for each group.
After administrating for 14 days, samples were taken, and 12% chloral hydrate was peritoneally injected at a dose of 0.35 mL/100 g. After anesthesia, blood sample was collected from abdominal aorta, and animals were sacrificed. Both ear tissues of guinea pigs were scissored and fixed in 10% formaldehyde solution. Ear tissues of guinea pigs were taken out, embedded in paraffin, sliced, normally stained with HE, and sealed with neutral gum. Pathological change of ears was observed under optical microscope, investigated and taken a picture in 10×20 vision. Referring to Baker method, pathologic scores of tissues were assessed: the presence of Munro microabscess in corneum layer scores 2.0 point; hyperkeratosis scores 0.5 point; parakeratosis scores 1.0 point; stratum granulosum thinning and disappearing scores 1.0 point; acanthosis scores 1.0 point; skin process extension and tortuous basal lamina are marked 0.5, 1.0, 1.5 according to light, middle, and heavy degrees, respectively; mononuclear cells and polymorphonuclear cells infiltration in dermis is marked 0.5, 1.0, 1.5 according to light, middle, and heavy degrees, respectively; obvious mastoid extrusion scores 0.5 point; telangiectasis in superficial layer of dermis scores 0.5 point.

[2] = set-up: species or system guinea pigs; settings: guinea pig, in vivo
Description: 0.9% sodium chloride solution was administrated to blank group and model group; Positive drug control group was given suspension of acitretin A capsule at 2.25 mg/kg, and the amount of intragastric administration is all 1 mL/100 g for each time, twice a day; 20 mg/kg chlorogenic acid was administrated to the low-dose group by intramuscular injection, and 40 mg/kg chlorogenic acid was administrated to the high-dose group by intramuscular injection, using a volume of 0.2 ml/10 g, once a day.
Before guinea pigs were sacrificed, blood was drawn via peritoneal cavity, and urea nitrogen and creatinine were detected by enzymic method, while glutamate pyruvate transaminase and glutamic-oxalacetic transaminase were tested using rate method.

[3] = test system: polymorphonuclear leukocytes (PMN); test: PMN transport into zymosan A-soaked gelatin sponge in peritoneal cavity of mice (psoriasis pustulosa test); assay type: in vivo, Kunmin mice
Description: Kunmin mice were randomly divided into 3 groups. Blank control group: according to body weight, about 0.5 ml of peanut oil was administrated to mice by gavage everyday; for high-dose group of chlorogenic acid (20 mg·kg^−1), chlorogenic acid was administrated to each mouse at a dose of 0.4 ml/20 g by peritoneal injection; for low-dose group of chlorogenic acid (10 mg·kg^−1), chlorogenic acid was administrated to each mouse at a dose of 0.4 ml/20 g by peritoneal injection. Following phasic points were observed, i.e. before administration (day 0), days 1, 2, 4, 6 after administration.
After a piece of sterile gelatin sponge (1 cm^2) was immersed in 0.75% zymosan A for 30 min, it was placed in peritoneal cavity of mice by surgery, and mice received standard diet. 24 hours after surgery, 5 mice of same phasic point were decapitated, and the gelatin sponges were taken out and stored in 0.5 ml cell eluant for culturing 30 min at 37 ° C., respectively. The gelatin sponges were washed with 0.01 mol/LPBS0.5 ml thrice, respectively, and the eluant was collected, passed through 40 μm nylon screen cloth, centrifuged, and the volume was 0.5 ml. Cells in above eluants were counted by automatic blood cell counter, and the amount of polymorphonuclear leukocytes (PMN) was read.

COc1cc(C)c(/C=C/C(C)=C/C=C/C(C)=C/C(=O)O)c(C)c1C [Acitretin A capsule, Acitretin A, reference compound]
Pathology of lesional tissue after administration (light microscope) ([1]; positive group 2.25 mg/kg intragastric twice a day): obvious improvement
Baker scores compared with model group ([1]; guinea pigs, positive group 2.25 mg/kg intragastric twice a day): significantly different

O=C(/C=C/c1ccc(O)c(O)c1)O[C@@H]1C[C@](O)(C(=O)O)C[C@@H](O)[C@H]1O [chlorogenic acid]
ALT ([2]; 20 mg/kg): 33.40 ± 7.26 u/L
AST ([2]; 20 mg/kg): 29.10 ± 7.29 u/L
Serum creatinine ([2]; 20 mg/kg): 88.33 ± 7.80 µmol/L
Urea nitrogen ([2]; 20 mg/kg): 4.92 ± 0.63 mmol
ALT ([2]; 40 mg/kg): 32.30 ± 6.07 u/L
AST ([2]; 40 mg/kg): 24.80 ± 2.57 u/L
Serum creatinine ([2]; 40 mg/kg): 87.27 ± 4.67 µmol/L
Urea nitrogen ([2]; 40 mg/kg): 4.98 ± 0.71 mmol
Pathology of lesional tissue after administration (light microscope) ([1]; chlorogenic group 20 and 40 mg/kg i.m.): obvious improvement
Baker scores compared with model group ([1]; guinea pigs, 20 and 40 mg/kg intramuscular injection once a day): significantly different
Baker score of low-dose group (20 mg/kg) relative to high-dose group (40 mg/kg) ([1]; guinea pigs, intramuscular injection once a day, not dose-dependent): superior
Chemotactic activity of PMN in mice ([3]; 10 and 20 mg/kg peritoneal injection): significantly reduce
PMN transport numbers ([3]; high dose group 20 mg/kg peritoneal injection, Day 0 (before administration)): 7.60 ± 6.07 ×10^9/L
PMN transport numbers ([3]; high dose group 20 mg/kg peritoneal injection, Day 1): 1.54 ± 0.26 ×10^9/L
PMN transport numbers ([3]; high dose group 20 mg/kg peritoneal injection, Day 2): 1.20 ± 2.14 ×10^9/L
PMN transport numbers ([3]; high dose group 20 mg/kg peritoneal injection, Day 4): 1.15 ± 0.89 ×10^9/L
PMN transport numbers ([3]; high dose group 20 mg/kg peritoneal injection, Day 6): 1.10 ± 1.29 ×10^9/L
PMN transport numbers ([3]; low dose group 10 mg/kg peritoneal injection, Day 0 (before administration)): 6.98 ± 1.71 ×10^9/L
PMN transport numbers ([3]; low dose group 10 mg/kg peritoneal injection, Day 1): 4.92 ± 2.63 ×10^9/L
PMN transport numbers ([3]; low dose group 10 mg/kg peritoneal injection, Day 2): 2.67 ± 1.33 ×10^9/L
PMN transport numbers ([3]; low dose group 10 mg/kg peritoneal injection, Day 4): 1.98 ± 0.90 ×10^9/L
PMN transport numbers ([3]; low dose group 10 mg/kg peritoneal injection, Day 6): 1.62 ± 0.58 ×10^9/L
Inhibitory action on chemotactic activity of PMN, high dose group (20 mg/kg) compared with low dose group (10 mg/kg) ([3]; peritoneal injection): stronger inhibitory action
